In US20260166039A1 (SCHRÖDINGER, INC., priority 2022, published 2026) one finds IC50 data, which are given here for 18 molecules.

What is called IC50 is the midpoint of a concentration-inhibition curve.

Molecules are shown by their SMILES.

T1 sequence (P30291 299-569 limits assumed): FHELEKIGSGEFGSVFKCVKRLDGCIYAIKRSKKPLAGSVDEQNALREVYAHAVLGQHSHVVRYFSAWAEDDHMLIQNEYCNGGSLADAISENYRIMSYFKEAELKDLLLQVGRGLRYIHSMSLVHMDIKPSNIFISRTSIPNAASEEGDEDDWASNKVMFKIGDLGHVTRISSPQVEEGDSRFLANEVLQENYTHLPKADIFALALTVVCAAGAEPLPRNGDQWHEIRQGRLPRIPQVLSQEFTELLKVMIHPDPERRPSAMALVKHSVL

The assay concerns the target T1, Wee1 kinase domain (Homo sapiens, UniProt P30291).
T1 construct: Wee1 kinase domain was purchased from Carna (catalog #05-177); purchased Carna 05-177
Briefly: Wee1 Kinase Biochemical Assay (ADP-Glo). Particulars: Wee1 kinase domain, 15 uM ATP, ADP-Glo. Here is the method: Wee1 Kinase Biochemical Assay Protocol
Wee1 kinase domain was purchased from Carna (catalog #05-177). Wee1 kinase activity was determined with Poly(Lys,Tyr 4:1) hydrobromide as a substrate (Sigma-Aldrich) and by measuring ADP production using the ADP-Glo Kinase Assay kit (Promega) following the manufacturer's instructions. The kinase reaction was performed using the following conditions:
Buffer: 40 mM Tris-HCl, 20 mM magnesium chloride, supplemented with 0.1 mg/mL bovine serum albumin and 2 mM DTT. The final reaction mix contained 1 nM Wee1 enzyme, 15 uM ATP, and 2 ng/mL Poly(Lys,Tyr 4:1) hydrobromide substrate. The reaction time was 4 hours at 25° C.
The ADP-Glo signal was measured using the Envision plate reader and the percentage inhibition of kinase activity calculated for each inhibitor tested. Percent inhibition of Wee1 kinase activity was calculated based on the following formula.
[formula] • SSample: the signal of compounds • SHigh Ctrl: the signal of high control (DMSO) • SLow Ctrl: the signal of low control (positive control Wee1 inhibitor at saturating concentration)
Take `CNCc1cccc(N2c3nc(Nc4ccc(N5CCN(C)CC5)cc4)ncc3[C@]3(C)COC(C)(C)C[C@H]23)n1` (single isomer, unassigned) [Example 93]: the IC50 is 10 to 100 nM. The molecule `CNCc1cccc(N2c3nc(Nc4ccc([C@@H]5CCC(=O)N5C)nc4)ncc3[C@]3(C)COC(C)(C)C[C@H]23)n1` (single isomer, unassigned) [Example 95] gave an IC50 of at least 1000 nM. Molecule `CNCc1cccc(N2c3nc(Nc4ccc([C@H]5CCC(=O)N5C)nc4)ncc3[C@]3(C)COC(C)(C)C[C@H]23)n1` (single isomer, unassigned) [Example 97] yielded a half-maximal inhibitory concentration (IC50) of 100 to 1000 nM.

`CNCc1cccc(N2c3nc(Nc4ccc([C@H]5CCC(=O)N5C)nc4)ncc3[C@@]3(C)COC(C)(C)C[C@@H]23)n1` (single isomer, unassigned) [Example 98] returned a 50% inhibitory concentration (IC50) below 10 nM. Molecule `Cc1cc(Nc2ncc3c(n2)N(c2cccc(N=S(C)(C)=O)n2)[C@H]2CC(C)(C)OC[C@@]32C)ccc1C1CCN(C)CC1` (single isomer, unassigned) [Example 103] gave an IC50 of 10 to 100 nM. `Cc1cc(Nc2ncc3c(n2)N(c2cccc(N=S(C)(C)=O)n2)[C@H]2CC(C)(C)OC[C@@]32C)ccc1N1CCN(C)CC1` (single isomer, unassigned) [Example 105] yielded an IC50 of 10 to 100 nM. With `CN1Cc2cc(Nc3ncc4c(n3)N(c3cccc(N=S(C)(C)=O)n3)[C@H]3CC(C)(C)OC[C@@]43C)ccc2C2(CC2)C1` (single isomer, unassigned) [Example 108], the IC50 fell in the range of 10 to 100 nM. In turn, `CN1CCc2ccc(Nc3ncc4c(n3)N(c3cccc(N=S(C)(C)=O)n3)[C@H]3CC(C)(C)OC[C@@]43C)cc2C1` (single isomer, unassigned) [Example 110] gave an IC50 of 10 to 100 nM. Then `CN1CCC(c2ccc(Nc3ncc4c(n3)N(c3cccc(N=S(C)(C)=O)n3)[C@@H]3CC(C)(C)OC[C@]43C)cc2)CC1` (single isomer, unassigned) [Example 111], with 10 to 100 nM.

`Cc1cc(Nc2ncc3c(n2)N(c2cccc(N=S(C)(C)=O)n2)[C@H]2CC(C)(C)OC[C@@]32C)ccc1[C@@H]1COCCN1` (single isomer, unassigned) [Example 113] returned an IC50 of 10 to 100 nM.

`Cc1cc(Nc2ncc3c(n2)N(c2cccc(N=S(C)(C)=O)n2)[C@H]2CC(C)(C)OC[C@@]32C)ccc1[C@H]1COCCN1` (single isomer, unassigned) [Example 115] gave a half-maximal inhibitory concentration (IC50) of 10 to 100 nM.

As for `CNC(=O)c1ccc(Nc2ncc3c(n2)N(c2cccc(N=S(C)(C)=O)n2)[C@H]2CC(C)(C)OC[C@@]32C)cc1` (single isomer, unassigned) [Example 116], the half-inhibitory concentration (IC50) was 100 to 1000 nM. `CNC(=O)c1ccc(Nc2ncc3c(n2)N(c2cccc(N=S(C)(C)=O)n2)C2CC(C)(C)OCC32C)cc1F` (single isomer, unassigned) [Example 118]: the IC50 was at least 1000 nM.

`CN1C[C@H]2C[C@@H]1CN2c1ccc(Nc2ncc3c(n2)N(c2cccc(N=S(C)(C)=O)n2)[C@H]2CC(C)(C)OC[C@@]32C)cc1` (single isomer, unassigned) [Example 121] yielded an IC50 of 100 to 1000 nM. Then `CN1C[C@@H]2C[C@H]1CN2c1ccc(Nc2ncc3c(n2)N(c2cccc(N=S(C)(C)=O)n2)[C@H]2CC(C)(C)OC[C@@]32C)cc1` (single isomer, unassigned) [Example 123], with 100 to 1000 nM. The molecule `CN1CCC[C@H]1c1ccc(Nc2ncc3c(n2)N(c2cccc(N=S(C)(C)=O)n2)[C@H]2CC(C)(C)OC[C@@]32C)cc1` (single isomer, unassigned) [Example 125] returned a half-inhibitory concentration (IC50) of 10 to 100 nM.

In the case of `CN1CCC[C@@H]1c1ccc(Nc2ncc3c(n2)N(c2cccc(N=S(C)(C)=O)n2)[C@H]2CC(C)(C)OC[C@@]32C)cc1` (single isomer, unassigned) [Example 128], the IC50 is 100 to 1000 nM.

`CN1CC[C@@H](c2ccc(Nc3ncc4c(n3)N(c3cccc(N=S(C)(C)=O)n3)[C@H]3CC(C)(C)OC[C@@]43C)cc2)C1` (single isomer, unassigned) [Example 130] had an IC50 of 100 to 1000 nM.
